Data taken from US20060084135A1, “Compositions for manipulating the lifespan and stress response of cells and organisms” (priority 2003, published 2006).

How the values were obtained:
[1] = test system: lysine 382 of p53 in HEK 293 cells; assay: p53 Ac-K382 Western blot in HEK 293 cells expressing dominant negative SIRT1-H363Y; type: cell-based, human; conditions: low concentrations of resveratrol
S. cerevisiae = assay: Yeast chronological lifespan; type: cell-based; conditions: 10 μM or 100 μM
[2] = test system: lysine 382 of p53 in U2OS osteosarcoma cells; assay: p53 Ac-K382 Western blot after UV radiation in U2OS cells; type: cell-based, human
human recombinant SIRT2 = biological target: T1, human recombinant SIRT2 (Homo sapiens, UniProt Q8IXJ6); assay: SIRT2 deacetylation assay (Fluor de Lys-SIRT2); type: biochemical; conditions: increasing concentrations; 25 μM Fluor de Lys-SIRT2, 25 μM NAD+
T1 sequence (Q8IXJ6 1-389): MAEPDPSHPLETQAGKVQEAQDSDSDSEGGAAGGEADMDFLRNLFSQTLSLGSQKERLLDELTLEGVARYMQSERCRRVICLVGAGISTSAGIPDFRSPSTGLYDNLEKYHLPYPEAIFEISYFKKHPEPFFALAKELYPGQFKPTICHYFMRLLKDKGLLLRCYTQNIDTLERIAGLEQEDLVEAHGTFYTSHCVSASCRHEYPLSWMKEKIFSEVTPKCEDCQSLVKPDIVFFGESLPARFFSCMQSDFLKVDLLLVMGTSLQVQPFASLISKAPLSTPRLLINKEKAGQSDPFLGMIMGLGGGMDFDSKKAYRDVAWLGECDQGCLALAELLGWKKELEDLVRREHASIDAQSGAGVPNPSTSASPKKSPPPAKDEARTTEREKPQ
From the text: Yeast Sir2 and human SIRT1 are very homologous and differ from human SIRT2 by the addition of an N-terminal domain that is absent in SIRT2. […] Thus, based on the difference in structure of SIRT1 and SIRT2, i.e., the absence of an N-terminal domain, it is believed that the N-terminal domain of SIRT1 and Sir2 is necessary for activation by the compounds described herein. In particular, it is likely that the activator compounds described herein interact with the N-terminal portion of sirtuins. The N-terminal portion of SIRT1 that is necessary for the action of the compounds is from about amino acid 1 to about amino acid 176, and that of Sir2 is from about amino acid 1 to about amino acid 175.

Oc1ccc(/C=C/c2cc(O)cc(O)c2)cc1 [Resveratrol, 3,5,4′-Trihydroxy-trans-stilbene]
Ability to promote deacetylation of p53 in cells expressing dominant-negative SIRT1 (H363Y) [1]: diminished | Effect on chronological lifespan (S. cerevisiae): failed to extend | Level of Ac-K382 of p53 compared to untreated cells ([2]; 0.5 μM resveratrol, 4 hours pre-treatment, UV radiation): marked decrease | Level of Ac-K382 of p53 ([2]; higher concentrations of resveratrol (>50 μM)): reversed | Effect on SIRT2 activity (human recombinant SIRT2): decrease
